Laboratory results reported in article PMC11605291 (Frontiers in Pharmacology, 2024).

Key:
[1] = Excretion of radioactivity in urine and feces (mass balance); type: in vivo, human
Experimental: Six subjects were admitted to the clinical research center 1 day prior to dosing, with random urine and fecal samples collected as blank excretion controls. After fasting overnight for at least 10 h, a blank blood sample was collected after a regular breakfast (449 kcal, with ∼35% energy from fat) on Day 1. […] It is noteworthy that the medication administration duration for each subject was strictly kept within 10 min. Scheduled collection of urine, feces, and blood samples, and safety monitoring proceeded until completion.
The excreta sample collection ceased when total radioactivity from excreta surpassed 80% of the administered dose, or less than 1% of the dose for two consecutive intervals. Blood sample collection ceased when the radioactivity of plasma at 2 consecutive time points was lower than 3 times the radioactivity at 0 h before administration. Based on the interim results, sample collection concluded earlier than initially planned.
Venous blood samples were collected within 0.5 h prior to administration and at 0.5, 1, 1.5, 2, 3, 4, 6, 8, 12, 24, 36, 48, 72, and 96 h after administration. About 8 mL of blood was collected at each time point in the anticoagulant collection tube containing K2-EDTA. The centrifuged plasma was used for non-radioactive and radioactive pharmacokinetic and biotransformation (metabolite) analyses. In addition, about 2 mL of venous blood was collected within 0.5 h before administration and at 1, 4, 8, 12, 24, and 48 h after administration for whole blood radioactivity analysis. Additional 10 mL of venous blood for each time point was collected at 1, 4, 8, 12, 24, and 48 h after administration, and the plasma was obtained by centrifugation for biotransformation (metabolites) analysis. Urine and fecal samples were collected until 144 h (4 subjects) or 192 h (2 subjects) after administration.
Radioactivity was measured using an oxidative combustion apparatus and liquid scintillation counter (LSC). After the whole blood sample was vortexed thoroughly, two portions (about 0.5 g each) were weighed into the combustion boat, and after complete combustion by oxidative combustion apparatus, [^14C]carbon dioxide generated from the combustion of the samples was captured by scintillation solution and measured by liquid scintillation counter. After plasma samples were fully vortexed, one portion (approximately 0.5 g) was weighed into a scintillation vial, mixed well with the scintillation solution, and measured using a liquid scintillation counter. When the radioactivity of the plasma sample after administration is below the LLOQ, additional samples can be added, up to a maximum of 1 g. After mixing the urine well, weighed one portion (about 1 g) into a scintillation bottle, then added scintillation solution to mix well, and use a liquid scintillation counter to measure the radioactivity. The feces were transferred to labelled containers with known empty weights and soaked in an appropriate amount of 50% aqueous isopropanol solution for about 2–4 h or for a certain period of time (e.g., overnight) at 1°C–9°C. Before homogenization, the solution was made up to a suitable dilution by the addition of an appropriate amount of 50% aqueous isopropanol, the total weight was weighed and recorded, and the homogenization was carried out using a tissue homogenizer. Two equal portions of the homogenate (approximately 0.3 g) were weighed into a combustion boat and fully combusted by an oxidative combustion apparatus, and the [^14C]carbon dioxide generated from the combustion of the samples was captured with a scintillation solution and measured using a liquid scintillation counter.
The combustion efficiency of the oxidative combustor was verified by performing a combustion recovery test using a^14C-containing standard solution of known radioactivity concentration prior to combustion of the sample. […]

[2] = Total radioactivity in plasma and whole blood (LSC), pharmacokinetics and blood-to-plasma ratio; type: in vivo, human
Experimental: Six subjects were admitted to the clinical research center 1 day prior to dosing, with random urine and fecal samples collected as blank excretion controls. After fasting overnight for at least 10 h, a blank blood sample was collected after a regular breakfast (449 kcal, with ∼35% energy from fat) on Day 1. […] Scheduled collection of urine, feces, and blood samples, and safety monitoring proceeded until completion.
Pharmacokinetic analysis was performed using Phoenix WinNonlin® software version 8.3. […] Descriptive statistics applied to parameters including maximum plasma concentration after administration (Cmax), the time to reach maximum plasma concentration after administration (Tmax), elimination rate constant (λz), area under the plasma concentration-time curve from the time 0 to the time of last quantifiable concentration (AUC0-t, obtained by the linear trapezoidal method), area under the plasma concentration-time curve from time 0 extrapolated to infinity (AUC0-∞, AUC0-∞ = AUC0-t + Ct/λ z ), half-life (t1/2, t1/2 = ln ([Lannutti et al., 2011])/λz), mean residence time (MRT, MRT = AUMC/AUC), apparent clearance (CL/F, CL/F = Dose/AUC0-∞), apparent volume of distribution based on terminal phase (Vz/F, Vz/F = Dose/(λz×AUC0-∞)).
Radioactivity was measured using an oxidative combustion apparatus and liquid scintillation counter (LSC). After the whole blood sample was vortexed thoroughly, two portions (about 0.5 g each) were weighed into the combustion boat, and after complete combustion by oxidative combustion apparatus, [^14C]carbon dioxide generated from the combustion of the samples was captured by scintillation solution and measured by liquid scintillation counter. After plasma samples were fully vortexed, one portion (approximately 0.5 g) was weighed into a scintillation vial, mixed well with the scintillation solution, and measured using a liquid scintillation counter. […]

[3] = total radioactivity in plasma, mean ± SD

For `C[C@H](Nc1ncnc(N)c1C#N)c1cc2ncc(Cl)n2nc1-c1ccccc1` [Amdizalisib], the “Aefeces, % of dose” value ([1]; Total (mean ± SD), 6 subjects, feces 0–144/192 h) was 62.08 % of dose, the “Aefeces, % of dose” value ([1]; Total (mean ± SD), 6 subjects, feces 0–144/192 h, listed as [^14C] Amdizalisib) was 62.08 ± 3.00 % of dose and the “Aeurine, % of dose” value ([1]; Total (mean ± SD), 6 subjects, urine 0–144/192 h) was 37.15 % of dose. The “Aeurine, % of dose” value ([1]; Total (mean ± SD), 6 subjects, urine 0–144/192 h, listed as [^14C] Amdizalisib) was 37.15 ± 2.84 % of dose, the “Aetotal, % of dose” value ([1]; Total (mean ± SD), 6 subjects, urine and feces 0–144/192 h, listed as [^14C] Amdizalisib) was 99.23 ± 0.30 % of dose and the “Aetotal, % of dose” value ([1]; Total (mean ± SD), 6 subjects, urine and feces 0–144/192 h, listed as [^14C]amdizalisib) was 99.23 % of dose. The “time within which completely excreted” value ([1]; single oral dose of [14C]amdizalisib suspension) was at most 168 h, the “Aefeces, % of dose” value ([1]; subject 1,001, feces 0–192 h) was 58.49 % of dose and the “Aeurine, % of dose” value ([1]; subject 1,001, urine 0–192 h) was 40.40 % of dose. The “Aetotal, % of dose” value ([1]; subject 1,001, urine and feces 0–192 h) was 98.89 % of dose, the “Aefeces, % of dose” value ([1]; subject 1,002, feces 0–192 h) was 63.33 % of dose and the “Aeurine, % of dose” value ([1]; subject 1,002, urine 0–192 h) was 35.85 % of dose. The “Aetotal, % of dose” value ([1]; subject 1,002, urine and feces 0–192 h) was 99.18 % of dose, the “Aefeces, % of dose” value ([1]; subject 1,003, feces 0–144 h) was 64.48 % of dose and the “Aeurine, % of dose” value ([1]; subject 1,003, urine 0–144 h) was 35.12 % of dose. The “Aetotal, % of dose” value ([1]; subject 1,003, urine and feces 0–144 h) was 99.60 % of dose, the “Aefeces, % of dose” value ([1]; subject 1,004, feces 0–144 h) was 58.70 % of dose and the “Aeurine, % of dose” value ([1]; subject 1,004, urine 0–144 h) was 40.65 % of dose. For the same molecule, the “Aetotal, % of dose” value ([1]; subject 1,004, urine and feces 0–144 h) was 99.35 % of dose, the “Aefeces, % of dose” value ([1]; subject 1,005, feces 0–144 h) was 61.77 % of dose and the “Aeurine, % of dose” value ([1]; subject 1,005, urine 0–144 h) was 37.11 % of dose. The “Aetotal, % of dose” value ([1]; subject 1,005, urine and feces 0–144 h) was 98.88 % of dose, the “Aefeces, % of dose” value ([1]; subject 1,006, feces 0–144 h) was 65.73 % of dose and the “Aeurine, % of dose” value ([1]; subject 1,006, urine 0–144 h) was 33.74 % of dose. The “Aetotal, % of dose” value ([1]; subject 1,006, urine and feces 0–144 h) was 99.47 % of dose, the “average excretion of total radioactivity within 96 h after administration” value ([1]; urine plus feces) was “over 94 % of the administered dose” and the “excretion within 96 h as share of the total excretion from 0 h to 192 h” value ([1]; urine plus feces) was 94.74%. For the same molecule, the “average excretion of total radioactivity within 96 h after administration” value ([1]; urine plus feces, listed as [^14C]amdizalisib) was 94.01 % of the administered dose, the “average plasma total radioactivity concentration at 96 h post dose” value ([2]; still detectable in 4 subjects) was 4.74 ng Eq./mL and the “AUC0-t of total radioactivity” value [2, 3] was 3,900 h ng Eq./mL. The “CL/F of total radioactivity” value [2, 3] was 7.25 L/h and the “Cmax of total radioactivity” value [2, 3] was 368 ng Eq./mL.
